Like-named read-outs stand apart in the source and are kept apart here.
Tests used:
GLP-1 receptor [1] = biological target: T1, GLP-1 receptor (Rattus norvegicus, UniProt P32301); conditions: for cAMP production by compound alone: absence of GLP-1; for intrinsic agonistic or antagonistic activity: summary of studies; for effect on GLP-1 dose-response curve / GLP-1 stimulated cAMP production: FIG. 9A
T1 sequence (P32301 22-463): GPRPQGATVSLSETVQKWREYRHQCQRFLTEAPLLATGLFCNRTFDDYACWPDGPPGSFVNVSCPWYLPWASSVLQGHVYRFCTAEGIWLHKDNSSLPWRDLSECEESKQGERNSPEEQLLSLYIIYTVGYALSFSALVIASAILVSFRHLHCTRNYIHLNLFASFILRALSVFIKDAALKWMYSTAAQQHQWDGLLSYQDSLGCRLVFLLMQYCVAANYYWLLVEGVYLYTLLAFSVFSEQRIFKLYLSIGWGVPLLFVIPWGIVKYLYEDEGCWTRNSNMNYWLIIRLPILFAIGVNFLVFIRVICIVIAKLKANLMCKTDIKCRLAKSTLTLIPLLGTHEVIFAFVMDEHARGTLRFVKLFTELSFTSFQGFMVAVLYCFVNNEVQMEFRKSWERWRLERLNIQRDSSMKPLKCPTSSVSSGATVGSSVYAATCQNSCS
Description: (§1) In the resting stage when the intracellular cAMP is minimal, a large BRET ratio was observed.

GLP-1 = GLP-1 (Homo sapiens, UniProt P01275); assay: Limited trypsin digestion of GLP-1 peptide; assay type: biochemical; conditions: free GLP-1 or with galanal b; preliminary observation
GLP-1, sequence (P01275 98-127 limits assumed): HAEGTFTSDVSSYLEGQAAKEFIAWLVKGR
Description: This is consistent with the finding that GPCR can exist in multiple active conformations, distinct conformation of the receptor is stabilized by distinct ligand structure and may lead to distinct signaling selectivity (55). […] There are at least two possible mechanisms to account for these observations. […] By binding to and modifying structural conformation of the receptor, the allosteric inhibitor of parturition (PDC 113.824) induces biased signaling when an orthosteric ligand is co-bound to the prostaglandin F2α receptor (56). […] Subtle conformation changes in peptide agonists can lead to selective coupling of the receptor to its downstream signaling pathway. As it has been shown in the case of biased agonist for the type 1 parathyroid hormone receptor (PTH1R) (25) and angiotensin II type 1A receptor ligands (57), subtle structure change of the peptide ligands can profoundly stabilize a distinct conformation of the receptor protein that selectively affects the coupling efficiency of a particular downstream signaling pathway.

GLP-1 receptor [2] = biological target: T2, GLP-1 receptor (Homo sapiens, UniProt P43220); assay: Receptor endocytosis assay, U2OS cells co-expressing GLP-1 receptor and β-arrestin2:GFP; assay type: cell-based; conditions: for positive modulation effect on GLP-1 elicited receptor endocytosis in the presence of exendin 9: FIG. 8, plus 1.8 mM of Exendin 9; for Efficacy of GLP-1 to elicit receptor endocytosis: Table 2, printed (100%), GLP-1 only or GLP-1 plus indicated compound
T2 construct: expressed in transfected cells; host or cells: U2OS osteosarcoma cells stably expressing beta-arrestin2:GFP (Norak Biosciences)
T2 sequence (P43220 24-463, species assumed): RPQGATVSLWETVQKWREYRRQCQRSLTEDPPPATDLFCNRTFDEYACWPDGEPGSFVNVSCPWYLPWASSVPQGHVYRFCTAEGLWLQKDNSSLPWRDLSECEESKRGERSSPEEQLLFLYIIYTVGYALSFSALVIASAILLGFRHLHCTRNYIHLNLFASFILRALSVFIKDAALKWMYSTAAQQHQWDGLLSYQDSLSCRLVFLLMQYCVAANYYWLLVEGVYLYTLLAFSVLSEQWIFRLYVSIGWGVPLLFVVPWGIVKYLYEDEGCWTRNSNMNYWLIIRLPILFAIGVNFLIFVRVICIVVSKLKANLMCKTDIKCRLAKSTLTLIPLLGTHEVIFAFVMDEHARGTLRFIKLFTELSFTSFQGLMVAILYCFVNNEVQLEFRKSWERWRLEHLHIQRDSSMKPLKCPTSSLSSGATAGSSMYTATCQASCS
Description: U2OS osteosarcoma cell line stably expressing a β-arrestin2:GFP fusion protein was obtained from Norak Biosciences (now Molecular Devices, part of MDS Inc., Mississauga, Ontario). […] Extracts were supplied at a concentration of 100 mg/ml in 100% DMSO. […] Plates were washed with PBS twice and sealed and could be stored at 4° C. The final concentration of the extract in the cell plate was 0.1, 0.03 and 0.001 mg/ml, and the final DMSO concentration was 1%.
Images and data of the cells were performed according to reported methods (51), using an ArrayScan® VTI HCS Reader (Cellomics, Inc. Pittsburgh, Pa.). […] A 20×0.4 numerical aperture microscope objective was used for the imaging, 3 fields were imaged per well, and CELLOMICS's Spot Detector BIOAPPLICATION was used to acquire and analyze the images. For these experiments, the Spot Detector BIOAPPLICATION used the Hoechst-labeled nuclei to identify individual cells and then automatically counted and analyzed the GFP-labeled spots associate with each cell. In addition to the number of spots and the sum of their areas and pixel intensities, the BIOAPPLICATION also reports properties of the individual nuclei such as their area.
One unit of activity is defined as the activity that will reach 50% of maximal response in a well of 384-well plate.
In addition, these processes can be visualized from its image (52), thus easily exclude false positive hits.

GLP-1 receptor [3] = biological target: T1, GLP-1 receptor; assay: cell-based
Description: as §1

[4] = test system: cAMP production elicited by GIP; conditions: 0.025 mg/ml; FIG. 11
Description: as §1

[5] = test system: cAMP production elicited by glucagon; conditions: 0.025 mg/ml; FIG. 11
Description: as §1

PTHR = biological target: T3, PTHR (Homo sapiens, UniProt Q03431); assay: PTH induced receptor endocytosis, PTHR/β-arrestin 2 GFP U2OS cells; assay type: cell-based; conditions: 15 nM of PTH; FIG. 5B
T3 construct: expressed in transfected cells
T3 sequence (Q03431 27-593): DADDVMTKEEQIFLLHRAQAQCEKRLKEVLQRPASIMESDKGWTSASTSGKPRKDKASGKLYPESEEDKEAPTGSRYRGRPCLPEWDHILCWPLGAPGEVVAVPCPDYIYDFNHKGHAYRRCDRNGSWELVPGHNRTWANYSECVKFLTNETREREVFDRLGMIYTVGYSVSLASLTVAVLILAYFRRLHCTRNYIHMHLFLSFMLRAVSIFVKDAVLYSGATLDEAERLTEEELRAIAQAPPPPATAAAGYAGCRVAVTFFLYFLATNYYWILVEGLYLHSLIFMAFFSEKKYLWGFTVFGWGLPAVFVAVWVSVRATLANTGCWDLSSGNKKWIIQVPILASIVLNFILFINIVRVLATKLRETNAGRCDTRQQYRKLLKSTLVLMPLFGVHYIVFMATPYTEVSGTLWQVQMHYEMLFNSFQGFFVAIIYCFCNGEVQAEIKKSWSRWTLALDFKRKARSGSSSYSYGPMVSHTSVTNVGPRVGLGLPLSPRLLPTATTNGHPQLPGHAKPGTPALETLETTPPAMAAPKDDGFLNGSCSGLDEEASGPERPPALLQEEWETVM
Description: The GLP-1R/3-arrestin2 GFP (Panel A) or PTHR/β-arrestin 2 GFP (Panel B) double stable expression U2OS cells were plated in 384-well plastic plates at a density of 3000 cell/well and cultured overnight.
U2OS osteosarcoma cell line stably expressing a β-arrestin2:GFP fusion protein was obtained from Norak Biosciences (now Molecular Devices, part of MDS Inc., Mississauga, Ontario). […] Extracts were supplied at a concentration of 100 mg/ml in 100% DMSO. […] The 3 cell assay plates were incubated at room temperature for 60 min before fixation with 2% formaldehyde and labeling of the cell nuclei with 5 μg/mL of the DNA-binding dye Hoechst 33342 (Molecular Probes, Eugene, Oreg.) for 1 hr. Plates were washed with PBS twice and sealed and could be stored at 4° C. The final concentration of the extract in the cell plate was 0.1, 0.03 and 0.001 mg/ml, and the final DMSO concentration was 1%.

SMILES: COC(=O)C1=CC[C@H]2[C@@H](CC[C@H]3C(C)(C)CCC[C@]23C)C(=O)C1 (racemic) [RJ-011, (±)-(6aS,11aS,11bR)-methyl 4,4,11b-trimethyl-7-oxo-2,3,4,4a,5,6,6a,7,8,11,11a,11b-dodecahydro-1H-cyclohepta[a]naphthalene-9-carboxylate]
- melting point: 93 to 94 °C

SMILES: CC1(C)CCC[C@]2(C)[C@H]3CC=C(CO)C[C@@H](O)[C@@H]3CC[C@@H]12 (racemic) [RJ-013, (±)-(6aS,7R,11aS,11bR)-9-(hydroxymethyl)-4,4,11b-trimethyl-2,3,4,4a,5,6,6a,7,8,11,11a,11b-dodecahydro-1H-cyclohepta[a]naphthalen-7-ol]
- melting point: 134 to 135 °C

SMILES: COC(=O)[C@@H]1CC[C@H]2C(CC[C@H]3C(C)(C)CCC[C@]23C)C(=O)C1 (mixture of isomers) [RJ-015, (±)-(6aS,11aS,11bR)-methyl 4,4,11b-trimethyl-7-oxotetradecahydro-1H-cyclo-hepta-[a]naphthalene-9-carboxylate]
- melting point: 67 to 68 °C

SMILES: COc1cc(C2C(NC(=O)c3ccc(NC(=O)OC(C)(C)C)cc3)(C(=O)O)C(c3ccc(OC(=O)c4cccs4)c(OC)c3)C2(NC(=O)c2ccc(NC(=O)OC(C)(C)C)cc2)C(=O)O)ccc1OC(=O)c1cccs1 (stereo not drawn) [Boc5, reference compound]
- concentration needed to stimulate low level cAMP production, fold higher (GLP-1 receptor [1]; RINm5F cells): 1000 fold

SMILES: CC[C@H](C)[C@H](NC(=O)[C@H](Cc1ccccc1)NC(=O)[C@H](CCC(=O)O)NC(=O)[C@H](CCCCN)NC(=O)[C@H](C)NC(=O)[C@H](C)NC(=O)[C@H](CCC(N)=O)NC(=O)CNC(=O)[C@H](CCC(=O)O)NC(=O)[C@H](CC(C)C)NC(=O)[C@H](Cc1ccc(O)cc1)NC(=O)[C@H](CO)NC(=O)[C@H](CO)NC(=O)[C@@H](NC(=O)[C@H](CC(=O)O)NC(=O)[C@H](CO)NC(=O)[C@@H](NC(=O)[C@H](Cc1ccccc1)NC(=O)[C@@H](NC(=O)CNC(=O)[C@H](CCC(=O)O)NC(=O)[C@H](C)NC(=O)[C@@H](N)Cc1c[nH]cn1)[C@@H](C)O)[C@@H](C)O)C(C)C)C(=O)N[C@@H](C)C(=O)N[C@@H](Cc1c[nH]c2ccccc12)C(=O)N[C@@H](CC(C)C)C(=O)N[C@H](C(=O)N[C@@H](CCCCN)C(=O)NCC(=O)N[C@@H](CCCNC(=N)N)C(=O)NCC(=O)O)C(C)C [GLP-1]
- degradation of GLP-1 by limited trypsin digestion (GLP-1): quickly degraded

SMILES: Cl.c1ccc(C2CCCC2NC2=NCCCCCCCCCCC2)cc1 (stereo not drawn) [MDL 12330A, reference compound]
- GLP-1 or forskolin dose response of cAMP (BRET ratio) in presence of inhibitor (GLP-1 receptor [1]; 250 μM): eliminated

SMILES: COC(=O)C1=CCC2C(CO)(CCC3C(C)(C)CCCC32C)C(=O)C1 [RJ-022, (6aR,1aR,11bS)-methyl6a-(hydroxymethyl)-4,4,11b-trimethyl-7-oxo-2,3,4,4a,5,6,6a,7,8,11,11a,11b-dodecahydro-1H-cyclohepta[a]naphthalene-9-carboxylate]
- melting point: 179 to 180 °C

SMILES: CC1(C)CCC[C@@]2(C)[C@H]1CC[C@@]1(CO)C(O)CC(CO)=CC[C@@H]12 (stereo partly drawn) [compound 2]
- positive modulation effect on GLP-1 elicited receptor endocytosis in the presence of exendin 9 (GLP-1 receptor [2]): diminished
- Efficacy of GLP-1 to elicit receptor endocytosis (GLP-1 receptor [2]): 82%
- concentration at which enhancement of cAMP production became saturated (GLP-1 receptor [1]; 3 nM of GLP-1, FIG. 9B): 0.03 mg/mL
- left shift of dose response curve of GLP-1 (GLP-1 receptor [1]; 0.0025 mg/ml of compound 2): 2.5 orders of magnitude
- potentiating effect on GLP-1 stimulated cAMP production in presence of exendin 9 or MDL12330A (GLP-1 receptor [1]; FIG. 10A, 10B): blocked
- effect on cAMP production by small molecule agonist Boc5 (GLP-1 receptor [1]; RINm5F cells): little effect
- potentiation of the affinity of GLP-1 / GLP-1 dependent cAMP production (GLP-1 receptor [1]; RINm5F cells): up to 1000 fold
- potentiation of the affinity of GLP-1 / GLP-1 dependent cAMP production (GLP-1 receptor [1]; RINm5F cells, listed as Compound 2): 1000 fold
- cAMP production by compound alone (GLP-1 receptor [1]): not able to induce cAMP production
- cAMP production by compound alone (GLP-1 receptor [1]; listed as Compound 2): does not elicit cAMP production in the absence of GLP-1
- intrinsic agonistic or antagonistic activity (GLP-1 receptor [1]): without intrinsic agonistic or antagonistic activity
- EC50 (GLP-1 receptor [3]): 3.1 µM
- effect on cAMP production elicited by GIP [4]: do not affect
- effect on cAMP production elicited by glucagon [5]: do not affect

SMILES: CC1(C)CCC[C@@]2(C)C1CC[C@@]1(C=O)[C@H](O)CC(C=O)=CC[C@@H]12 (stereo partly drawn) [galanal B]
- increase of the affinity of GLP-1 (GLP-1 receptor [2]; FIG. 5C, 0.001 mg/ml of galanal B): 4 folds
- positive modulation effect on GLP-1 elicited receptor endocytosis in the presence of exendin 9 (GLP-1 receptor [2]): diminished
- Efficacy of GLP-1 to elicit receptor endocytosis (GLP-1 receptor [2]): 115.2%
- potentiation effect on PTH induced receptor endocytosis (selectivity) (PTHR): did not show similar effect on PTH and its cognate receptor
- degradation of GLP-1 by limited trypsin digestion (GLP-1): protects GLP-1 from trypsin degradation
- effect on GLP-1 dose-response curve / GLP-1 stimulated cAMP production (GLP-1 receptor [1]; RINm5F cells): did not significantly affect
- effect on GLP-1 dose-response curve / GLP-1 stimulated cAMP production (GLP-1 receptor [1]; RINm5F cells, listed as galanal b): neutral
- cAMP production by 3 nM of GLP-1 (GLP-1 receptor [1]; galanal B up to 0.04 mg/ml, FIG. 9B): not changed
- intrinsic agonistic or antagonistic activity (GLP-1 receptor [1]): without intrinsic agonistic or antagonistic activity

SMILES: CC1(C)CCC[C@]2(C)[C@H]3CC=C(C=O)C[C@@H](O)[C@]3(C=O)CC[C@@H]12 [galanal B]
- EC50 to potentiate receptor endocytosis elicited by 4 nM GLP-1 (GLP-1 receptor [2]; 4 nM GLP-1): 240 ng/mL
- GLP-1 response potentiated by the fraction (GLP-1 receptor [2]; 0.0002 mg/ml, 4 nM GLP-1, from 20%): 40%
- potentiation effect on PTH induced receptor endocytosis (selectivity) (PTHR): selective for GLP-1 but not for PTH
